Key:
[1] = system: Puccinia recondita f. sp. Tritici; test: Fungicidal activity against Puccinia recondita f. sp. Tritici / wheat / leaf disc preventative (brown rust); format: in vivo; conditions: foliar, 200 ppm in the applied formulation, wheat leaf segments cv. Kanzler, inoculated 1 day after application, vs untreated control, read-out: disease control
Procedure, shortened: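 Compound, diluted from DMSO solution into aqueous 0.025% Tween20, is sprayed at 200 ppm onto cut wheat segments (cv. Kanzler) placed on water agar. One day on, segments receive a fungal spore suspension and are incubated at 19° C., 75% rh, 12 h photoperiod, with % control vs untreated scored at 7–9 days.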

[2] = system: Puccinia recondita f. sp. Tritici; test: Fungicidal activity against Puccinia recondita f. sp. Tritici / wheat / leaf disc curative (brown rust); format: in vivo; conditions: foliar, 24 h, 200 ppm in the applied formulation, wheat leaf segments cv. Kanzler, applied 1 day after inoculation, vs untreated control, read-out: disease control
Description: Leaf disks or leaf segments of various plant species are cut from plants grown in a greenhouse. The cut leaf disks or segments are placed in multiwell plates (24-well format) onto water agar. The leaf disks are sprayed with a test solution before (preventative) or after (curative) inoculation. Compounds to be tested are prepared as DMSO solutions (max. 10 mg/ml) which are diluted to the appropriate concentration with 0.025% Tween20 just before spraying. The inoculated leaf disks or segments are incubated under defined conditions (temperature, relative humidity, light, etc.) according to the respective test system. A single evaluation of disease level is carried out 3 to 14 days after inoculation, depending on the pathosystem. Percent disease control relative to the untreated check leaf disks or segments is then calculated.
Wheat leaf segments cv. Kanzler are placed on agar in multiwell plates (24-well format). The leaf segments are then inoculated with a spore suspension of the fungus. Plates were stored in darkness at 19° C. and 75% relative humidity. The formulated test compound diluted in water was applied 1 day after inoculation. The leaf segments were incubated at 19° C. and 75% relative humidity under a light regime of 12 hours light/12 hours darkness in a climate cabinet and the activity of a compound was assessed as percent disease control compared to untreated when an appropriate level of disease damage appears in untreated check leaf segments (6 to 8 days after application).
The following compounds at 200 ppm in the applied formulation give at least 80% disease control in this test when compared to untreated control leaf disks under the same conditions, which show extensive disease development.

Phakopsora pachyrhizi = test: Fungicidal activity against Phakopsora pachyrhizi / soybean / leaf disc preventative (Asian soybean rust); format: in vivo; conditions: foliar, 200 ppm in the applied formulation, soybean leaf disks, vs untreated control, read-out: disease control
Procedure, shortened: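 Preventative test: compound sprayed onto soybean leaf discs one day before spore inoculation of the lower leaf face. Incubation at 20 °C and 75% rh, first 24-36 h in darkness, then a 12 h light cycle. Disease control versus untreated discs read 12-14 days after application.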

[3] = system: Glomerella lagenarium (Colletotrichum lagenarium); test: Fungicidal activity against Glomerella lagenarium (Colletotrichum lagenarium) liquid culture / cucumber / preventative (anthracnose); format: cell-based; conditions: Colletotrichum orbiculare, 72 h; 20 ppm in the applied formulation; liquid culture (PDB), growth inhibition measured photometrically 3 to 4 days after application; vs untreated control; read-out: disease control
Procedure, shortened: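 PDB broth seeded with cryo-stored conidia, added onto compound (DMSO solution) in 96-well plates; 24° C.; photometric growth read at 3–4 d post-application; % inhibition vs untreated check.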

melting point	Structure (SMILES)	pest or weed control at 200 ppm [1]	pest or weed control at 200 ppm [2]	pest or weed control at 200 ppm (Phakopsora pachyrhizi)	inhibition of growth at 20 ppm [3]
164 to 165 °C	CON=CC(C)NC(=O)c1ccc(-c2noc(C(F)(F)F)n2)cc1 (centres unmarked) [Compound 1.3, N-(2-methoxyimino-1-methyl-ethyl)-4-[5-(trifluoromethyl)-1,2,4-oxadiazol-3-yl]benzamide]	≥ 80%	≥ 80%	≥ 80%	≥ 80%
–	CC(ON=CCNC(=O)c1ccc(-c2noc(C(F)(F)F)n2)cc1)C(=O)O (centres unmarked) [Compound 1.82, 2-[2-[[4-[5-(trifluoromethyl)-1,2,4-oxadiazol-3-yl]benzoyl]amino]ethylideneamino] oxypropanoic acid]	≥ 80%	≥ 80%	≥ 80%	≥ 80%
–	CC(C)(C)ON=CCNC(=O)c1ccc(-c2noc(C(F)(F)F)n2)cc1 [Compound 1.89, N-(2-tert-butoxyiminoethyl)-4-[5-(trifluoromethyl)-1,2,4-oxadiazol-3-yl]benzamide]	≥ 80%	≥ 80%	≥ 80%	≥ 80%
–	C=CCON=CCNC(=O)c1ccc(-c2noc(C(F)(F)F)n2)cc1 [Compound 1.91, N-(2-allyloxyiminoethyl)-4-[5-(trifluoromethyl)-1,2,4-oxadiazol-3-yl]benzamide]	≥ 80%	≥ 80%	≥ 80%	≥ 80%
–	CC(C)ON=CCNC(=O)c1ccc(-c2noc(C(F)(F)F)n2)cc1 [Compound 1.94, N-(2-isopropoxyimino-ethyl)-4-[5-(trifluoromethyl)-1,2,4-oxadiazol-3-yl]benzamide]	≥ 80%	≥ 80%	≥ 80%	≥ 80%
–	O=C(NCC=NOCC(F)(F)F)c1ccc(-c2noc(C(F)(F)F)n2)cc1 [Compound 1.95, N-[2-(2,2,2-trifluoroethoxy-imino)ethyl]-4-[5-(trifluoromethyl)-1,2,4-oxadiazol-3-yl]benzamide]	≥ 80%	≥ 80%	≥ 80%	≥ 80%
–	C=C(Cl)CON=CCNC(=O)c1ccc(-c2noc(C(F)(F)F)n2)cc1 [Compound 1.100, N-[2-(2-chloroallyloxy-imino)ethyl]-4-[5-(trifluoromethyl)-1,2,4-oxadiazol-3-yl]benzamide]	≥ 80%	≥ 80%	≥ 80%	≥ 80%
–	O=C(NCC=NOCC1CC1)c1ccc(-c2noc(C(F)(F)F)n2)cc1 [Compound 1.101, N-[2-(cyclopropyl-methoxyimino)ethyl]-4-[5-(trifluoromethyl)-1,2,4-oxadiazol-3-yl]benzamide]	≥ 80%	≥ 80%	≥ 80%	≥ 80%
–	O=C(NCC=NOC1COC1)c1ccc(-c2noc(C(F)(F)F)n2)cc1 [Compound 1.102, N-[2-(oxetan-3-yloxyimino)ethyl]-4-[5-(trifluoromethyl)-1,2,4-oxadiazol-3-yl]benzamide]	≥ 80%	≥ 80%	≥ 80%	≥ 80%
–	CC(CNC(=O)c1ccc(-c2noc(C(F)(F)F)n2)cc1)=NOCCO [Compound 1.104]	≥ 80%	≥ 80%	≥ 80%	≥ 80%
–	CC(CNC(=O)c1ccc(-c2noc(C(F)(F)F)n2)cc1)=NOCCN [Compound 1.110, N-[2-(2-aminoethoxy-imino)propyl]-4-[5-(trifluoromethyl)-1,2,4-oxadiazol-3-yl]benzamide]	≥ 80%	≥ 80%	≥ 80%	≥ 80%
–	CC(CNC(=O)c1ccc(-c2noc(C(F)(F)F)n2)cc1)=NOC1CCCCO1 (centres unmarked) [Compound 1.114, N-(2-tetrahydropyran-2-yloxyiminopropyl)-4-[5-(trifluoromethyl)-1,2,4-oxadiazol-3-yl]benzamide]	≥ 80%	≥ 80%	≥ 80%	≥ 80%
–	CCCON=C(C)CNC(=O)c1ccc(-c2noc(C(F)(F)F)n2)cc1 [Compound 1.116, N-(2-propoxyimino-propyl)-4-[5-(trifluoromethyl)-1,2,4-oxadiazol-3-yl]benzamide]	≥ 80%	≥ 80%	≥ 80%	≥ 80%
–	CON=C(C)CNC(=O)c1ccc(-c2noc(C(F)(F)F)n2)cc1 [Compound 1.133, N-(2-methoxyimino-propyl)-4-[5-(trifluoromethyl)-1,2,4-oxadiazol-3-yl]benzamide]	≥ 80%	≥ 80%	≥ 80%	≥ 80%
–	C=CCON=C(C)CNC(=O)c1ccc(-c2noc(C(F)(F)F)n2)cc1 [Compound 1.135, N-(2-allyloxyimino-propyl)-4-[5-(trifluoromethyl)-1,2,4-oxadiazol-3-yl]benzamide]	≥ 80%	≥ 80%	≥ 80%	≥ 80%
–	CC(CNC(=O)c1ccc(-c2noc(C(F)(F)F)n2)cc1)=NOC(C)C [Compound 1.138, N-(2-isopropoxyimino-propyl)-4-[5-(trifluoromethyl)-1,2,4-oxadiazol-3-yl]benzamide]	≥ 80%	≥ 80%	≥ 80%	≥ 80%
–	CC(CNC(=O)c1ccc(-c2noc(C(F)(F)F)n2)cc1)=NOCC1CC1 [Compound 1.145, N-[2-(cyclopropyl-methoxyimino)propyl]-4-[5-(trifluoromethyl)-1,2,4-oxadiazol-3-yl]benzamide]	≥ 80%	≥ 80%	≥ 80%	≥ 80%
–	CC(CNC(=O)c1ccc(-c2noc(C(F)(F)F)n2)cc1)=NOC1COC1 [Compound 1.146, N-[2-(oxetan-3-yloxyimino)propyl]-4-[5-(trifluoromethyl)-1,2,4-oxadiazol-3-yl]benzamide]	≥ 80%	≥ 80%	≥ 80%	≥ 80%
132 to 134 °C	CON=CC(C)NC(=O)c1ccc(-c2noc(C(F)(F)F)n2)cc1F (centres unmarked) [Compound 1.155, 2-fluoro-N-(2-methoxyimino-1-methyl-ethyl)-4-[5-(trifluoromethyl)-1,2,4-oxadiazol-3-yl]benzamide]	≥ 80%	–	≥ 80%	≥ 80%
113 to 115 °C	CCON=CC(C)NC(=O)c1ccc(-c2noc(C(F)(F)F)n2)cc1F (centres unmarked) [Compound 1.156, N-(2-ethoxyimino-1-methyl-ethyl)-2-fluoro-4-[5-(trifluoromethyl)-1,2,4-oxadiazol-3-yl]benzamide]	–	≥ 80%	≥ 80%	≥ 80%
116 to 118 °C	CON=CCNC(=O)c1ccc(-c2noc(C(F)(F)F)n2)cc1F [Compound 1.169, 2-fluoro-N-(2-methoxyimino-ethyl)-4-[5-(trifluoromethyl)-1,2,4-oxadiazol-3-yl]benzamide]	–	–	–	–
60 to 62 °C	CO/N=C/CN(C(=O)c1ccc(-c2noc(C(F)(F)F)n2)cc1)C1CC1 [Compound 1.170, N-cyclopropyl-N-[(2E)-2-methoxyiminoethyl]-4-[5-(trifluoromethyl)-1,2,4-oxadiazol-3-yl]benzamide]	–	–	–	–
